# Literature values as cited in US10124030B2, “Skincare preparations” (KARYNG, LLC, priority 2016, dated 2018).
# Tested on: epidermal SIRT1 protein expression
# Conditions: 0.02% vs untreated with UVB; UVB 0.2 J/cm^2
structure (smiles),measurement,value
Oc1ccc(C=Cc2cc(O)cc(O)c2)cc1 [Resveratrol],modulation of epidermal SIRT1 protein expression,−22%
